PubChem BioAssay AID2060603 (Molecular Pharmacology Branch, DTP, NCI, 2025)

System: 422866-222-R5-J1-PDC spheroid viability
Assay: Anticancer human tumor 422866-222-R5-J1-PDC patient-derived pancreatic adenocarcinoma cell line growth inhibition [CLK]
Settings: spheroids with HUVEC and MSC; for IC50: curve of first compound; for viability, T/C: stronger effect = lower value
Procedure, shortened: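 Multi-cell-type spheroids combined patient-derived tumor cells with HUVEC endothelial cells and human mesenchymal stem cells. Paired agents were dosed in half-log steps down from about clinical Cmax, or from 10 microM where Cmax was unknown.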
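Note: spheroids exposed to agents for seven days before readout.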

CC(C)CC(NC(=O)C(Cc1ccccc1)NC(=O)c1cnccn1)B(O)O (centres undefined) + CNC(=O)c1ccc(Nc2nc(OC3CCCC3)c3c(-c4ccc5nc(C)oc5c4)c[nH]c3n2)c(OC)c1
IC50 (second compound 0.0316 µM): 5.65 nM
IC50 (second compound 0.1 µM): 5.52 nM
IC50 (second compound 0.316 µM): 4.54 nM
IC50 (second compound 1 µM): 4.19 nM
IC50 (second compound 3.16 µM): 4.29 nM
IC50 (second compound 10 µM): 4.12 nM
viability, T/C (second compound 0.0316 µM, first compound 0.000949 µM): 94%
viability, T/C (second compound 0.0316 µM, first compound 0.003 µM): 88.6%
viability, T/C (second compound 0.0316 µM, first compound 0.00949 µM): 18.5%
viability, T/C (second compound 0.0316 µM, first compound 0.03 µM): 2.14%
viability, T/C (second compound 0.0316 µM, first compound 0.0949 µM): 0.75%
viability, T/C (second compound 0.0316 µM, first compound 0.3 µM): 0.67%
viability, T/C (second compound 0.1 µM, first compound 0.000949 µM): 115%
viability, T/C (second compound 0.1 µM, first compound 0.003 µM): 90.8%
viability, T/C (second compound 0.1 µM, first compound 0.00949 µM): 13.8%
viability, T/C (second compound 0.1 µM, first compound 0.03 µM): 1.87%
viability, T/C (second compound 0.1 µM, first compound 0.0949 µM): 1.7%
viability, T/C (second compound 0.1 µM, first compound 0.3 µM): 1.33%
viability, T/C (second compound 0.316 µM, first compound 0.000949 µM): 108%
viability, T/C (second compound 0.316 µM, first compound 0.003 µM): 70.2%
viability, T/C (second compound 0.316 µM, first compound 0.00949 µM): 13.9%
viability, T/C (second compound 0.316 µM, first compound 0.03 µM): 1.54%
viability, T/C (second compound 0.316 µM, first compound 0.0949 µM): 0.87%
viability, T/C (second compound 0.316 µM, first compound 0.3 µM): 1.27%
viability, T/C (second compound 1 µM, first compound 0.000949 µM): 96.5%
viability, T/C (second compound 1 µM, first compound 0.003 µM): 67.8%
viability, T/C (second compound 1 µM, first compound 0.00949 µM): 6.77%
viability, T/C (second compound 1 µM, first compound 0.03 µM): 1.53%
viability, T/C (second compound 1 µM, first compound 0.0949 µM): 3.06%
viability, T/C (second compound 1 µM, first compound 0.3 µM): 2.68%
viability, T/C (second compound 3.16 µM, first compound 0.000949 µM): 86.8%
viability, T/C (second compound 3.16 µM, first compound 0.003 µM): 69.7%
viability, T/C (second compound 3.16 µM, first compound 0.00949 µM): 6.4%
viability, T/C (second compound 3.16 µM, first compound 0.03 µM): 1.59%
viability, T/C (second compound 3.16 µM, first compound 0.0949 µM): 1.4%
viability, T/C (second compound 3.16 µM, first compound 0.3 µM): 0.99%
viability, T/C (second compound 10 µM, first compound 0.000949 µM): 84.8%
viability, T/C (second compound 10 µM, first compound 0.003 µM): 66.5%
viability, T/C (second compound 10 µM, first compound 0.00949 µM): 6.65%
viability, T/C (second compound 10 µM, first compound 0.03 µM): 1.39%
viability, T/C (second compound 10 µM, first compound 0.0949 µM): 1.44%
viability, T/C (second compound 10 µM, first compound 0.3 µM): 1.32%

O=C(c1cc(Cc2n[nH]c(=O)c3ccccc23)ccc1F)N1CCN(C(=O)C2CC2)CC1 + CNC(=O)c1ccc(Nc2nc(OC3CCCC3)c3c(-c4ccc5nc(C)oc5c4)c[nH]c3n2)c(OC)c1
IC50 (second compound 0.0316 µM): > 10000 nM
IC50 (second compound 0.1 µM): > 10000 nM
IC50 (second compound 0.316 µM): > 10000 nM
IC50 (second compound 1 µM): > 10000 nM
IC50 (second compound 3.16 µM): > 10000 nM
IC50 (second compound 10 µM): > 10000 nM
viability, T/C (second compound 0.0316 µM, first compound 0.0316 µM): 103%
viability, T/C (second compound 0.0316 µM, first compound 0.1 µM): 104%
viability, T/C (second compound 0.0316 µM, first compound 0.316 µM): 112%
viability, T/C (second compound 0.0316 µM, first compound 1 µM): 110%
viability, T/C (second compound 0.0316 µM, first compound 3.16 µM): 90.6%
viability, T/C (second compound 0.0316 µM, first compound 10 µM): 90.2%
viability, T/C (second compound 0.1 µM, first compound 0.0316 µM): 111%
viability, T/C (second compound 0.1 µM, first compound 0.1 µM): 110%
viability, T/C (second compound 0.1 µM, first compound 0.316 µM): 108%
viability, T/C (second compound 0.1 µM, first compound 1 µM): 110%
viability, T/C (second compound 0.1 µM, first compound 3.16 µM): 91.9%
viability, T/C (second compound 0.1 µM, first compound 10 µM): 72%
viability, T/C (second compound 0.316 µM, first compound 0.0316 µM): 85.2%
viability, T/C (second compound 0.316 µM, first compound 0.1 µM): 84.7%
viability, T/C (second compound 0.316 µM, first compound 0.316 µM): 77.2%
viability, T/C (second compound 0.316 µM, first compound 1 µM): 71.2%
viability, T/C (second compound 0.316 µM, first compound 3.16 µM): 76.1%
viability, T/C (second compound 0.316 µM, first compound 10 µM): 60.6%
viability, T/C (second compound 1 µM, first compound 0.0316 µM): 71.3%
viability, T/C (second compound 1 µM, first compound 0.1 µM): 63.9%
viability, T/C (second compound 1 µM, first compound 0.316 µM): 64%
viability, T/C (second compound 1 µM, first compound 1 µM): 52.1%
viability, T/C (second compound 1 µM, first compound 3.16 µM): 71.3%
viability, T/C (second compound 1 µM, first compound 10 µM): 65.7%
viability, T/C (second compound 3.16 µM, first compound 0.0316 µM): 68%
viability, T/C (second compound 3.16 µM, first compound 0.1 µM): 85.8%
viability, T/C (second compound 3.16 µM, first compound 0.316 µM): 68.1%
viability, T/C (second compound 3.16 µM, first compound 1 µM): 66.9%
viability, T/C (second compound 3.16 µM, first compound 3.16 µM): 57.8%
viability, T/C (second compound 3.16 µM, first compound 10 µM): 59.2%
viability, T/C (second compound 10 µM, first compound 0.0316 µM): 66.1%
viability, T/C (second compound 10 µM, first compound 0.1 µM): 75.8%
viability, T/C (second compound 10 µM, first compound 0.316 µM): 58.3%
viability, T/C (second compound 10 µM, first compound 1 µM): 62.1%
viability, T/C (second compound 10 µM, first compound 3.16 µM): 62.4%
viability, T/C (second compound 10 µM, first compound 10 µM): 51.8%
